{"source": "patent US4175544A", "about": "“Iodo-aryl carbonates for use in methods in radiography” (Lafayette Pharmacal Inc., priority 1978, dated 1979)", "key": {"[1]": {"tested_on": "lymph nodes (popliteal and iliac)", "conditions": "dog, in vivo", "quoted_text": "Four iodinated organic carbonates prepared as described hereinabove were evaluated for use as lymphographic agents in laboratory dogs.\nSix adult mongrel dogs, preconditioned for at least two weeks at the Lafayette Pharmacal, Inc. facilities, were used for the study. The dogs were removed from food the evening prior to dosing. Each animal was first anesthetized with Rompun and sodium pentobarbital and intubated to assist in breathing. A standard lymphogram was then performed on one rear leg only of each animal using known laboratory procedures. Specifically, a blue dye was first injected between the toes of the right hind limb to locate the lymph ducts. A single duct was then disected out and cannulated. One of the six compounds was then selected and a syringe pump used to inject the test compound into the duct at a constant rate. In this regard, the dogs were injected with an effective amount of one (1) cc of test substance per 20 lbs. of body weight. The iodinated phenyl compounds were brought to about body temperature prior to the injecting and then were injected while at about the body temperature.\nRadiographs were then taken of each animal after confirming the location of the injected bolus by fluoroscopy means. The animals were given atropine sulfate and observations made while they were allowed to recover from the anesthetic unassisted.\nThe animals were then returned to their cages and radiographs were taken at the end of 24 hours, 3 days and 1, 2, 3, 4 and 6 weeks to determine the radiographic clearance rate of each tested compound. Daily urine samples were also collected and subjected to fluorescent exitation analysis to determine the urinary clearance rate for each compound. Six weeks after the initial lymphogram, the animals were sacrificed and the popliteal and iliac nodes on both sides removed. The nodes from the dosed side and undosed side of each animal were then compared histopathologically."}, "albino mice [2]": {"tested_on": "albino mice", "assay": "Initial toxicity screen: Approximate Lethal Dose by intraperitoneal injection (Deichmann and LeBlanc)", "type": "in vivo", "conditions": "for Approximate Lethal Dose (ALD): intraperitoneal, albino mice, neat liquid or suspension, footnote (b): largest dose administered (e, f, i, p, q)", "experimental": "As an initial toxicity screen for the compounds shown hereinabove, the neat liquid or suspension of the material was injected into the peritoneal cavity of albino mice and the Approximate Lethal Dose (ALD) determined using the method of Deichmann and LeBlanc (W. B. Deichmann and T. J. LeBlanc, J. Ind. Hyg., 25, 415 (1943)) the results of which are presented in Table II, as set forth hereinafter.\nApproximate Interperitoneal Toxicity in Mice\nApproximate Lethal Dose Ml/Kg"}, "brain and spinal cord": {"tested_on": "brain and spinal cord", "assay": "Suboccipital study of laboratory animals (neurotoxicity, brain and spinal cord histopathology)", "type": "in vivo, laboratory rats", "conditions": "rat; for Overall / histopathological response: 0.1 ml suboccipital injection, 1 to 14 weeks; for Difficulty with righting responses / Recovery from the injection procedure: suboccipital injection; for Recovery from the injection procedure: as a group; for Lipid puddle formation: compared with air and Pantopaque", "experimental": "Six iodinated phenyl carbonate compounds prepared as described above, as well as air and Pantopaque, a known prior art radiographic compound, were injected suboccipitally into separate groups of 30 laboratory rats. The six iodinated compounds under examination were p-iodobenzyl-n-hexyl carbonate, p-iodobenzyl-n-octyl carbonate, p-iodobenzyl-2-octyl carbonate, 2-ethylhexyl-p-iodobenzyl carbonate, n-hexyl-3-(p-iodophenyl)propyl carbonate and n-hexyl-2-(p-iodobenzyl)butyl carbonate. Six rats from each injected group were then sacrificed at periodic intervals and the brain and spinal cord removed for histopathological evaluation. By comparing the results of air and Pantopaque with the results using the iodinated compounds, an evaluation of their relative neurotoxicity was obtained.\nThe groups of rats were first subjected to standard quarantine procedure at the Lafayette Pharmacol, Inc. facilities for at least two weeks prior to dosing. About 18 hours prior to dosing, food was withdrawn but water was allowed ad lib. During injection, each animal was anesthetized in an ether chamber and the back of the neck closely clipped. After placing the animal on a board with the head declined at 45°, a puncture was made just at the base of the atlas and 0.1 ml. of the selected test substance was injected. Radiographs were then taken immediately after dosing to confirm the intrathecal location of the injected bolus, and the animals were returned to their cages for observation.\nOne group of six animals for each tested substance was then sacrificed at the following elapsed times post injection: 1 week; 2 weeks; 4 weeks; 8 weeks and 14 weeks. At sacrifice, the animal were perfused with saline and formalin. Each animal was again radiographed and the brain and spinal cord then removed and stored for histopathological study."}, "albino mice [3]": {"tested_on": "albino mice", "assay": "Initial toxicity screen: Approximate Lethal Dose by intraperitoneal injection (Deichmann and LeBlanc)", "type": "in vivo", "conditions": "20% w/v in Sesame oil, for r also footnote (b): largest dose administered"}, "lung [4]": {"tested_on": "lung", "conditions": "dog, in vivo", "quoted_text": "(§1) Food was withdrawn from each animal 12 hours prior to dosing with water given ad lib. The animals were then first anesthetized with sodium pentobarbital and maintained on halothane. Each animal was then intubated with a tracheal tube and scouting X-ray films were taken to confirm its position. Next, a stainless steel guide wire was passed through a polypropylene tube, i.e., insuflation tube, and this combination was passed into the animal's lung. The position of this guide wire was then confirmed by fluoroscopy and the guide wire then removed, thus leaving the insulfation tube in place.\n(§2) In this regard, the amount of selected iodinated phenyl carbonate compound varied for each animal according to weight, with 6 cc being given to the heaviest test dog. Oxygen at 20 psi was then used to insuflate a caudal lobe of one lung of each animal while monitoring with fluoroscopy. Lateral and direct view radiographs were then taken. […] Food was then given after 12 hours.\n(§3) At 2 weeks, the animals were then anesthetized and radiographs taken while the lungs were expanded by air insuflation. The animals were then sacrificed by injection of saline and the dosed lobe of each animal examined histopathologically and compared with the corresponding undosed lobe."}, "lung [5]": {"tested_on": "lung", "assay": "Bronchography study of laboratory animals (insuflation of a caudal lobe of one lung)", "conditions": "dog, dosed lobe, 2 weeks", "quoted_text": "as §1, §2, §3"}}}
{"smiles": "CCCCOC(=O)SCc1ccc(I)cc1", "note": "[S-(p-iodobenzyl)-n-butyl thiolcarbonate]", "values": [{"measurement": "Histopathology of dosed nodes", "setting": "[1]", "result": "mild granulomatous lymphadenitis or lipoidal lymphadenopathy"}, {"measurement": "Overall result after six weeks", "setting": "[1]", "result": "excellent overall results with only minor histopathological responses"}, {"measurement": "Rate of clearance and elimination (order, fastest to slowest)", "setting": "[1]", "result": "almost the same"}, {"measurement": "Time to radiographically clear", "setting": "[1]", "result": "≤ 6", "unit": "weeks"}]}
{"smiles": "CC(C)COC(=O)OCc1ccc(I)cc1", "note": "[a, p-Iodobenzyl Isobutyl Carbonate]", "values": [{"measurement": "Approximate Lethal Dose (ALD)", "setting": "albino mice [2]", "result": 3, "unit": "mL/kg"}]}
{"smiles": "CCCCCOC(=O)OCc1ccc(I)cc1", "note": "[b, n-Amyl-p-Iodobenzyl Carbonate]", "values": [{"measurement": "Approximate Lethal Dose (ALD)", "setting": "albino mice [2]", "result": 3, "unit": "mL/kg"}]}
{"smiles": "CCCCCCOC(=O)OCc1ccc(I)cc1", "note": "[c, n-Hexyl-p-Iodobenzyl Carbonate]", "values": [{"measurement": "Approximate Lethal Dose (ALD)", "setting": "albino mice [2]", "result": 7, "unit": "mL/kg"}, {"measurement": "Rate of clearance and elimination (order, fastest to slowest)", "setting": "[1]", "result": "p-iodobenzyl-n-butyl carbonate, p-iodobenzyl-n-hexyl carbonate, p-iodobenzyl-n-octyl carbonate and ethiodol"}, {"measurement": "Time to radiographically clear", "setting": "[1]", "result": "≤ 6", "unit": "weeks"}, {"measurement": "Overall / histopathological response", "setting": "brain and spinal cord", "result": "Relatively more severe histopathological responses"}, {"measurement": "Difficulty with righting responses", "setting": "brain and spinal cord", "result": "more animals exhibiting righting difficulty"}, {"measurement": "Recovery from the injection procedure", "setting": "brain and spinal cord", "result": "taking longer to recover"}]}
{"smiles": "CC(C)CC(C)OC(=O)OCc1ccc(I)cc1", "note": "(stereo not drawn) [d, p-Iodobenzyl-4-methyl-2-Pentyl Carbonate]", "values": [{"measurement": "Approximate Lethal Dose (ALD)", "setting": "albino mice [2]", "result": 7, "unit": "mL/kg"}]}
{"smiles": "CCCCCCCCOC(=O)OCc1ccc(I)cc1", "note": "[e, n-Octyl-p-Iodobenzyl Carbonate]", "values": [{"measurement": "Approximate Lethal Dose (ALD)", "setting": "albino mice [2]", "result": 15, "unit": "mL/kg"}, {"measurement": "Histopathology of dosed nodes", "setting": "[1]", "result": "mild granulomatous lymphadenitis or lipoidal lymphadenopathy"}, {"measurement": "Overall result after six weeks", "setting": "[1]", "result": "excellent overall results with only minor histopathological responses"}, {"measurement": "Radiographic state of iliac node", "setting": "[1]", "result": "small droplets could be seen"}, {"measurement": "Radiographic state of popliteal node", "setting": "[1]", "result": "clear"}, {"measurement": "Rate of clearance and elimination (order, fastest to slowest)", "setting": "[1]", "result": "p-iodobenzyl-n-hexyl carbonate, p-iodobenzyl-n-octyl carbonate and ethiodol"}, {"measurement": "Overall / histopathological response", "setting": "brain and spinal cord", "result": "overall responses close to air and Pantopaque approximating normal"}, {"measurement": "Lipid puddle formation", "setting": "brain and spinal cord", "result": "slightly more lipid puddle formation"}, {"measurement": "Difficulty with righting responses", "setting": "brain and spinal cord", "result": "an occasional animal showing some difficulty with righting responses"}]}
{"smiles": "CCCCCCCCCCOC(=O)OCc1ccc(I)cc1", "note": "[f, n-Decyl-p-Iodobenzyl Carbonate]", "values": [{"measurement": "Approximate Lethal Dose (ALD)", "setting": "albino mice [2]", "result": 10.5, "unit": "mL/kg"}]}
{"smiles": "CCCCC(CC)COC(=O)OCc1ccc(I)cc1", "note": "(stereo not drawn) [g, 2-Ethylhexyl-p-Iodobenzyl Carbonate]", "values": [{"measurement": "Approximate Lethal Dose (ALD)", "setting": "albino mice [2]", "result": 15, "unit": "mL/kg"}, {"measurement": "Overall / histopathological response", "setting": "brain and spinal cord", "result": "Relatively more severe histopathological responses"}, {"measurement": "Difficulty with righting responses", "setting": "brain and spinal cord", "result": "more animals exhibiting righting difficulty"}, {"measurement": "Recovery from the injection procedure", "setting": "brain and spinal cord", "result": "taking longer to recover"}]}
{"smiles": "CCCC(CC)OC(=O)OCc1ccc(I)cc1", "note": "(stereo not drawn) [h, 3-Hexyl-p-Iodobenzyl Carbonate]", "values": [{"measurement": "Approximate Lethal Dose (ALD)", "setting": "albino mice [2]", "result": 3, "unit": "mL/kg"}]}
{"smiles": "CCCCCCC(C)OC(=O)OCc1ccc(I)cc1", "note": "(stereo not drawn) [i, 2-Octyl-p-Iodobenzyl Carbonate]", "values": [{"measurement": "Approximate Lethal Dose (ALD)", "setting": "albino mice [2]", "result": 15, "unit": "mL/kg"}, {"measurement": "Overall / histopathological response", "setting": "brain and spinal cord", "result": "Relatively more severe histopathological responses"}, {"measurement": "Difficulty with righting responses", "setting": "brain and spinal cord", "result": "more animals exhibiting righting difficulty"}, {"measurement": "Recovery from the injection procedure", "setting": "brain and spinal cord", "result": "taking longer to recover"}]}
{"smiles": "CCCCCCOC(=O)Oc1ccc(I)cc1", "note": "[j, n-Hexyl-p-Iodophenyl Carbonate]", "values": [{"measurement": "Approximate Lethal Dose (ALD)", "setting": "albino mice [2]", "result": 7, "unit": "mL/kg"}]}
{"smiles": "CCCCCCCCOC(=O)Oc1ccc(I)cc1", "note": "[k, n-Octyl-p-Iodphenyl Carbonate]", "values": [{"measurement": "Approximate Lethal Dose (ALD)", "setting": "albino mice [2]", "result": 7, "unit": "mL/kg"}]}
{"smiles": "CCCCCCOC(=O)OC(C)c1ccc(I)cc1", "note": "(stereo not drawn) [l, n-Hexyl-p-Iodo-sec-Phenethyl Carbonate]", "values": [{"measurement": "Approximate Lethal Dose (ALD)", "setting": "albino mice [2]", "result": 10.5, "unit": "mL/kg"}]}
{"smiles": "CCCCCCOC(=O)OCCc1ccc(I)cc1", "note": "[m, n-Hexyl-p-Iodophenethyl Carbonate]", "values": [{"measurement": "Approximate Lethal Dose (ALD)", "setting": "albino mice [2]", "result": 7, "unit": "mL/kg"}]}
{"smiles": "CCCCCCOC(=O)OCCCc1ccc(I)cc1", "note": "[n, n-Hexyl-3-(p-Iodophenyl)Propyl Carbonate]", "values": [{"measurement": "Approximate Lethal Dose (ALD)", "setting": "albino mice [2]", "result": 15, "unit": "mL/kg"}, {"measurement": "Overall / histopathological response", "setting": "brain and spinal cord", "result": "Relatively more severe histopathological responses"}, {"measurement": "Difficulty with righting responses", "setting": "brain and spinal cord", "result": "more animals exhibiting righting difficulty"}, {"measurement": "Recovery from the injection procedure", "setting": "brain and spinal cord", "result": "taking longer to recover"}]}
{"smiles": "CCCCCCOC(=O)OCCC(C)c1ccc(I)cc1", "note": "(stereo not drawn) [o, n-Hexyl-3-(p-Iodophenyl)Butyl Carbonate]", "values": [{"measurement": "Approximate Lethal Dose (ALD)", "setting": "albino mice [2]", "result": 7, "unit": "mL/kg"}]}
{"smiles": "CCCCCCOC(=O)OCC(CC)Cc1ccc(I)cc1", "note": "(stereo not drawn) [p, n-Hexyl-2-(p-Iodobenzyl)Butyl Carbonate]", "values": [{"measurement": "Approximate Lethal Dose (ALD)", "setting": "albino mice [2]", "result": "greater than 15 Ml/Kg"}, {"measurement": "Overall / histopathological response", "setting": "brain and spinal cord", "result": "overall responses close to air and Pantopaque approximating normal"}, {"measurement": "Lipid puddle formation", "setting": "brain and spinal cord", "result": "slightly more lipid puddle formation"}, {"measurement": "Difficulty with righting responses", "setting": "brain and spinal cord", "result": "an occasional animal showing some difficulty with righting responses"}]}
{"smiles": "CCOC(=O)OCc1ccc(I)cc1", "note": "[p-iodobenzyl ethyl carbonate]", "values": [{"measurement": "Clearance of nodes", "setting": "[1]", "result": "~3", "unit": "days"}, {"measurement": "Histopathology of dosed nodes", "setting": "[1]", "result": "no change in the nodes"}, {"measurement": "Overall result after six weeks", "setting": "[1]", "result": "indistinguishable from undosed animals"}, {"measurement": "Rate of clearance and elimination (order, fastest to slowest)", "setting": "[1]", "result": "fastest"}]}
{"smiles": "CCCCOC(=O)OCc1ccc(I)cc1", "note": "[p-iodobenzyl-n-butyl carbonate]", "values": [{"measurement": "Histopathology of dosed nodes", "setting": "[1]", "result": "no change in the nodes"}, {"measurement": "Overall result after six weeks", "setting": "[1]", "result": "indistinguishable from undosed animals"}, {"measurement": "Rate of clearance and elimination (order, fastest to slowest)", "setting": "[1]", "result": "almost the same"}, {"measurement": "Time to radiographically clear", "setting": "[1]", "result": "≤ 6", "unit": "weeks"}]}
{"smiles": "CCCCCCOC(=O)OCC(CCCC)Cc1ccc(I)cc1", "note": "(stereo not drawn) [q, n-Hexyl-2-(p-Iodobenzyl)-n-Hexyl Carbonate]", "values": [{"measurement": "Approximate Lethal Dose (ALD)", "setting": "albino mice [2]", "result": "greater than 15 Ml/Kg"}]}
{"smiles": "CCCCCCOC(=O)OCc1c(I)cc(I)c(N)c1I", "note": "[r, 3-Amino-2,4,6-Triiodobenzyl-n-Hexyl Carbonate]", "values": [{"measurement": "Approximate Lethal Dose (ALD)", "setting": "albino mice [3]", "result": "greater than 11 Ml/Kg"}]}
{"smiles": "CCCCCCOC(=O)OCc1cc(I)cc(I)c1", "note": "[s, 3,5-Diiodobenzyl-n-Hexyl Carbonate]", "values": [{"measurement": "Approximate Lethal Dose (ALD)", "setting": "albino mice [2]", "result": 5, "unit": "mL/kg"}]}
{"smiles": "CCCCCCCCOC(=O)OCc1cccc(I)c1", "note": "[t, m-Iodobenzyl-n-Octyl Carbonate]", "values": [{"measurement": "Approximate Lethal Dose (ALD)", "setting": "albino mice [2]", "result": "greater than 17 Ml/Kg"}]}
{"smiles": "CCOC(=O)OCc1c(I)cc(I)c(NC(C)=O)c1I", "note": "[u, 3-acetamido-(2,4,6-triiodobenzyl)ethyl carbonate]", "values": [{"measurement": "Histopathological alterations of dosed lobes", "setting": "lung [4]", "result": "obliterative granulomatous bronchiolitis"}, {"measurement": "Persistence of compound in lung", "setting": "lung [4]", "result": "some evidence the iodinated phenyl carbonate had persisted and was responsible for this granulomatous bronchiolitis"}, {"measurement": "Gross lesions related to instillation", "setting": "lung [5]", "result": "No gross lesions were found that appeared specifically related to instillation of the contrast medium"}, {"measurement": "Approximate Lethal Dose (ALD)", "setting": "albino mice [3]", "result": "greater than 22 Ml/Kg"}]}
{"smiles": "COC(=O)OC(C)c1ccc(I)cc1", "note": "(stereo not drawn) [v, p-Iodo-sec-Phenethyl Methyl Carbonate, reference compound]", "values": [{"measurement": "Intraperitoneal toxicity (in words)", "setting": "albino mice [2]; compared with the compounds of Table II", "result": "more toxic"}, {"measurement": "Approximate Lethal Dose (ALD)", "setting": "albino mice [2]", "result": 1.5, "unit": "mL/kg"}]}
